US11332459B2 (TEIJIN PHARMA LIMITED, priority 2017, dated 2022)
Counter-ions that a name gives are not always drawn.

Molecular target: T1, human TRPC6 (Homo sapiens, UniProt Q9Y210)
T1 construct: expressed in transfected cells
T1 sequence (Q9Y210 1-931): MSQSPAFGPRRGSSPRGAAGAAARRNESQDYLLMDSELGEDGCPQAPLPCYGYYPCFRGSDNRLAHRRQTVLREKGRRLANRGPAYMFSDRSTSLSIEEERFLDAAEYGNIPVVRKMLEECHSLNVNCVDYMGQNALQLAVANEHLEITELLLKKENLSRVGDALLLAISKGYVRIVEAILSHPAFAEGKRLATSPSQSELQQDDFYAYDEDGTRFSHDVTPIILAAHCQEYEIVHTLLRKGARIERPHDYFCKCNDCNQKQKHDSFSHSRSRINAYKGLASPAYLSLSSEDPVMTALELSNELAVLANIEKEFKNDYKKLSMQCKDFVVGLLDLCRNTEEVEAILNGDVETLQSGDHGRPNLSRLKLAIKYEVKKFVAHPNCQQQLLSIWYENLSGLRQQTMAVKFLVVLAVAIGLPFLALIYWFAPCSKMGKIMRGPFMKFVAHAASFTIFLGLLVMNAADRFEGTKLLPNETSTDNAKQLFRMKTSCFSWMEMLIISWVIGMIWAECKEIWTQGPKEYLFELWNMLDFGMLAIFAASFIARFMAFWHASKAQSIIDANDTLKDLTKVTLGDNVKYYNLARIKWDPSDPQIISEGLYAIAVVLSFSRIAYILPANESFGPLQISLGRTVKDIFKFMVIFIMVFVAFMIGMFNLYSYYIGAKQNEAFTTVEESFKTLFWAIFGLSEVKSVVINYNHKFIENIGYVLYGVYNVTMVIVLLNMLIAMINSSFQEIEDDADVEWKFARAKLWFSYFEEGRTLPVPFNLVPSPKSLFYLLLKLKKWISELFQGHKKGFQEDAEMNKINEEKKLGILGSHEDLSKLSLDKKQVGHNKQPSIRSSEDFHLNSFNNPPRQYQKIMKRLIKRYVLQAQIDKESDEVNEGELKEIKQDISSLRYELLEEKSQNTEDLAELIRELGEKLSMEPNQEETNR
Experiment: TRPC6 calcium flux assay (FLIPR, OAG-stimulated calcium influx)
Format: cell-based
Conditions: HEK293 cells stably transfected with human TRPC6, read-out: hTRPC6 Potency
Outline: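 HEK293 cells stably expressing human TRPC6, loaded with calcium dye 90–120 min at RT, then given compound for 25 min before OAG (50 uM final, 0.5% DMSO) in HEPES buffer pH 7.2 with 2 mM CaCl2. Background-subtracted FLIPR peak over 180 s normalized to OAG vs buffer; IC50 from dose plot.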

Compound | IC50 [µM]
C[C@H](CC#N)NC(=O)Cn1c(N2CC[C@@H](F)[C@H](N)C2)nc2ccc(F)cc21 [Example 670, 2-(2-((3R,4R)-3-amino-4-fluoropiperidin-1-yl)-6-fluoro-1H-benzo[d]imidazol-1-yl)-N-((R)-1-cyanopropan-2-yl)acetamide] | 1.12
N[C@@H]1CN(c2nc3cc(F)cc(F)c3n2Cc2ncc(Cl)cn2)CC[C@H]1F [Example 257, (3R,4R)-1-(1-((5-chloro-2-pyrimidinyl)methyl)-5,7-difluoro-1H-benzimidazol-2-yl)-4-fluoro-3-piperidinamine] | 0.0524
N#Cc1ccc(Cn2c(N3CC[C@@H](CN)C3)nc3ccccc32)cc1 [Example 178, (S)-4-((2-(3-(aminomethyl)pyrrolidin-1-yl)-1H-benzo[d]imidazol-1-yl)methyl)benzonitrile] | 0.0471
C[C@H](C(=O)N(C)C)n1c(N2CC[C@@H](F)[C@H](N)C2)nc2cc(F)c(F)cc21 [Example 279] | 0.00716
COc1cc(F)cc2nc(N3CC[C@@H](F)[C@H](N)C3)n(CC(=O)N(C)CC(F)(F)F)c12 [Example 509, 2-(2-((3R,4R)-3-amino-4-fluoropiperidin-1-yl)-5-fluoro-7-methoxy-1H-benzo[d]imidazol-1-yl)-N-methyl-N-(2,2,2-trifluoroethyl)acetamide] | 0.131
CC(C#N)CN(C)C(=O)Cn1c(N2CC[C@@H](F)[C@H](N)C2)nc2cc(F)c(F)cc21 (mixture of isomers) [Example 621, 2-(2-((3R,4R)-3-amino-4-fluoropiperidin-1-yl)-5,6-difluoro-1H-benzo[d]imidazol-1-yl)-N-(2-cyanopropyl)-N-methylacetamide] | 0.0753
CN(CC(F)(F)F)C(=O)Cn1c(N2CC[C@@H](F)[C@H](N)C2)nc2ccc(C(F)(F)F)cc21 [Example 554, 2-(2-((3R,4R)-3-amino-4-fluoropiperidin-1-yl)-6-(trifluoromethyl)-1H-benzo[d]imidazol-1-yl)-N-methyl-N-(2,2,2-trifluoroethyl)acetamide] | 0.0109
CN(CC(F)(F)F)C(=O)Cn1c(N2CCC(F)(F)[C@H](N)C2)nc2cc(F)ccc21 [Example 482, (R)-2-(2-(3-amino-4,4-difluoropiperidin-1-yl)-5-fluoro-1H-benzo[d]imidazol-1-yl)-N-methyl-N-(2,2,2-trifluoroethyl)acetamide] | 2.74
COc1ccc(Cn2c(N3CCC[C@@H](N)C3)nc3ccccc32)cc1Cl [Example 393, (R)-1-(1-(3-chloro-4-methoxybenzyl)-1H-benzo[d]imidazol-2-yl)piperidin-3-amine] | 5.05
N[C@@H]1CN(c2nc3c(F)cc(F)cc3n2Cc2nnc(C(F)F)s2)CC[C@H]1F [Example 557, (3R,4R)-1-(1-((5-(difluoromethyl)-1,3,4-thiadiazol-2-yl)methyl)-4,6-difluoro-1H-benzo[d]imidazol-2-yl)-4-fluoropiperidin-3-amine] | 0.0128
COc1cnc(Cn2c(N3CC[C@@H](F)[C@H](N)C3)nc3cc(F)ccc32)nc1 [Example 446, (3R,4R)-4-fluoro-1-(5-fluoro-1-((5-methoxypyrimidin-2-yl)methyl)-1H-benzo[d]imidazol-2-yl)piperidin-3-amine] | 0.034
CN[C@H]1CCCN(c2nc3ccccc3n2CC(=O)N2CCC2)C1 [Example 266, 1-(1-azetidinyl)-2-(2-((3S)-3-(methylamino)-1-piperidinyl)-1H-benzimidazol-1-yl)ethanone] | 15.8
CN[C@H]1CCCN(c2nc3ccccc3n2Cc2ccc(C#N)cn2)C1 [Example 116, 6-((2-((3S)-3-(methylamino)-1-piperidinyl)-1H-benzimidazol-1-yl)methyl)-3-pyridinecarbonitrile] | 0.00779
N#Cc1ccc(Cn2c(N3CC[C@H](CN)C3)nc3ccccc32)cc1 [Example 179, (R)-4-((2-(3-(aminomethyl)pyrrolidin-1-yl)-1H-benzo[d]imidazol-1-yl)methyl)benzonitrile] | 0.326
CN[C@@H]1CN(c2nc3c(F)cc(F)cc3n2[C@H](C)c2ccc(C#N)cn2)CC[C@H]1F (single isomer, unassigned) [Example 438] | 0.476
COc1cc(C#N)ccc1Cn1c(N2CCC[C@@H](N)C2)nc2ccccc21 [Example 396, (R)-4-((2-(3-aminopiperidin-1-yl)-1H-benzo[d]imidazol-1-yl)methyl)-3-methoxybenzonitrile] | 18.2
CN(CC#N)C(=O)Cn1c(N2CC[C@@H](F)[C@H](N)C2)nc2cc(F)c(F)cc21 [Example 615, 2-(2-((3R,4R)-3-amino-4-fluoropiperidin-1-yl)-5,6-difluoro-1H-benzo[d]imidazol-1-yl)-N-(cyanomethyl)-N-methylacetamide] | 0.0285
CO[C@H]1CCN(c2nc3cc(F)ccc3n2Cc2ncc(Cl)cn2)C[C@H]1N [Example 477, (3R,4S)-1-(1-((5-chloropyrimidin-2-yl)methyl)-5-fluoro-1H-benzo[d]imidazol-2-yl)-4-methoxypiperidin-3-amine] | 1.03
COc1ccc(Cn2c(N3CC[C@@H](F)[C@H](N)C3)nc3ccccc32)nc1 [Example 425, (3R,4R)-4-fluoro-1-(1-((5-methoxypyridin-2-yl)methyl)-1H-benzo[d]imidazol-2-yl)piperidin-3-amine] | 0.113
N#Cc1ccc(Cn2c(N3CC[C@@H](F)[C@H](N)C3)nc3c(F)cc(F)cc32)cc1 [Example 157, 4-((2-((3R,4R)-3-amino-4-fluoro-1-piperidinyl)-4,6-difluoro-1H-benzimidazol-1-yl)methyl)benzonitrile] | 0.000501
N#Cc1ccc(Cn2c(N3CCC[C@H](N)C3)nc3ccccc32)c(Cl)c1 [Example 321, (S)-4-((2-(3-aminopiperidin-1-yl)-1H-benzo[d]imidazol-1-yl)methyl)-3-chlorobenzonitrile hydrochloride] | 0.00407
N[C@@H]1CN(c2nc3cc(F)c(F)cc3n2CC(=O)N2CC(F)(F)C2)CC[C@H]1F [Example 428, 2-(2-((3R,4R)-3-amino-4-fluoropiperidin-1-yl)-5,6-difluoro-1H-benzo[d]imidazol-1-yl)-1-(3,3-difluoroazetidin-1-yl)ethanone] | 0.0183
N#Cc1ccc(Cn2c(N3CC[C@@H](F)[C@H](N)C3)nc3ncccc32)cc1 [Example 417, 4-((2-((3R,4R)-3-amino-4-fluoropiperidin-1-yl)-1H-imidazo[4,5-b]pyridin-1-yl)methyl)benzonitrile] | 0.0127
CN(CC(F)(F)F)C(=O)Cn1c(N2CC[C@@H](F)[C@H](N)C2)nc2cc(Cl)ccc21 [Example 570, 2-(2-((3R,4R)-3-amino-4-fluoropiperidin-1-yl)-5-chloro-1H-benzo[d]imidazol-1-yl)-N-methyl-N-(2,2,2-trifluoroethyl)acetamide] | 0.0854
N#Cc1ccc(Cn2c(N3CCC[C@H](N)C3)nc3c(Cl)cccc32)nc1 [Example 3, (S)-6-((2-(3-aminopiperidin-1-yl)-4-chloro-1H-benzo[d]imidazol-1-yl)methyl)nicotinonitrile] | 0.00199
Cc1cc2nc(N3CC[C@@H](F)[C@H](N)C3)n(Cc3ccc(C#N)cn3)c2cc1F [Example 114, 6-((2-((3R,4R)-3-amino-4-fluoro-1-piperidinyl)-6-fluoro-5-methyl-1H-benzimidazol-1-yl)methyl)-3-pyridinecarbonitrile] | 0.000382
CN(C(=O)Cn1c(N2CC[C@@H](F)[C@H](N)C2)nc2cc(F)c(F)cc21)C1CC1 [Example 602, 2-(2-((3R,4R)-3-amino-4-fluoropiperidin-1-yl)-5,6-difluoro-1H-benzo[d]imidazol-1-yl)-N-cyclopropyl-N-methylacetamide] | 0.00575
N#Cc1ccc(Cn2c(N3CCC[C@@]4(CCN4)C3)nc3ccccc32)nc1 [Example 27, (R)-6-((2-(1,6-diazaspiro[3.5]nonan-6-yl)-1H-benzo[d]imidazol-1-yl)methyl)nicotinointrile] | 0.0735
N#Cc1cc(Cl)ccc1Cn1c(N2CCC[C@@H](N)C2)nc2ccccc21 [Example 397, (R)-2-((2-(3-aminopiperidin-1-yl)-1H-benzo[d]imidazol-1-yl)methyl)-5-chlorobenzonitrile] | 1.58
C[C@@H](c1ccc(Cl)cc1Cl)n1c(N2CC[C@@H](F)[C@H](N)C2)nc2cc(F)c(F)cc21 [Example 323, (3R,4R)-1-(1-((1S)-1-(2,4-dichlorophenyl)ethyl)-5,6-difluoro-1H-benzimidazol-2-yl)-4-fluoro-3-piperidinamine] | > 3.75
